Reference: patent EP0367189A2, “Sugar phosphates and sulfonates of epipodophyllotoxin glucosides” (Bristol-Myers Squibb Company, priority 1988, dated 1990)
Converted amounts (≈) assume the structure as drawn.

Legend:
[1] = test system: B16 melanoma cells; assay: In vitro cytotoxicity against B16 melanoma cells (neutral red staining); assay type: cell-based; details: 72 hours at 37°C, colorimetric at 540 nm, IC₅₀ higher than 100 µg/ml = lack of cytotoxic activity
Procedure: Cytotoxicity of compounds of the present invention was studied using B16 melanoma cells. B16 melanoma cells were grown to the logarithmic phase in the enriched Eagle minimum essential medium supplemented with fetal calf serum (10%) and kanamycin (60 mcg/ml). The tumor cells were harvested and implanted into wells of the 96-well microtiter plate with test materials at the inoculum size of 3.0 x 10⁴ cells/ml. They were incubated at 37°C in humidified atmosphere of 5% CO₂ and 95% air for 72 hours. The cytotoxic activity against the above cell line was determined colorimetrically at 540 nm after staining viable cells with neutral red and is reported in terms of the concentration that inhibits 50% of cell growth (IC₅₀). IC₅₀ values of higher than 100 µg/ml are generally considered as indicating lack of cytotoxic activity.

[2] = test system: P388 leukemia; assay: Antitumor activity against murine transplantable P388 leukemia (survival); assay type: in vivo, CDF₁ mice; details: maximum % T/C only, at the dose giving the maximum effect (dose column of Table I); single intraperitoneal dose on day 1; observed 45 days; 10⁶ P388 cells ip; % T/C of 125 or greater = significant
Procedure: Representative compounds of the present invention were evalnated for anti tumor activity against murine transplantable P388 leukemia. Five-week old female CDF₁ mice were inoculated intraperitoneally with 0.4 ml of diluted ascitic fluid containing 10⁶ lymphocytic leukemia P388 cells. […] The percent increase of median survival time (MST) of treated animals over that of untreated control animals was determined and reported as % T/C. Compounds showing % T/C values of 125 or greater are considered to have significant antitumor activity. Table I presents the results of the in vivo evaluation; only the maximum % T/C and the dose giving the maximum effects are reported.

[3] = biological target: T1, prostatic acid phosphatase (Homo sapiens, UniProt P15309); details: Seligman et al, Cancer Chemotherapy Reports Part I, 1975; cited from earlier work
T1 sequence (P15309 33-386): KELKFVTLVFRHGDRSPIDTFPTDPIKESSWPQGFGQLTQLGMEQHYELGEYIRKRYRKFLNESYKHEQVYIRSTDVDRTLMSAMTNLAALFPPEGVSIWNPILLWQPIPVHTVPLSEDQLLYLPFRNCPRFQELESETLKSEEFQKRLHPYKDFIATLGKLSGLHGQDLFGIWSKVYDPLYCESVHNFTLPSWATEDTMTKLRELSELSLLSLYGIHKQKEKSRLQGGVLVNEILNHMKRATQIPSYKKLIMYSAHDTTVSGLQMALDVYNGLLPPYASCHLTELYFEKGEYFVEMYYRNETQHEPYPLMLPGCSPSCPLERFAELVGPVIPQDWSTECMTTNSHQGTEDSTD

[4] = Seligman et al, Cancer Chemotherapy Reports Part I, 1975; cited from earlier work

Row | Compound | IC50 ([1]; Mus musculus) [µg/mL] | %T/C of MST [2] [%] | IC₅₀ [1] [µg/mL] | hydrolysis by prostatic acid phosphatase [3] | toxicity over the parent podophyllotoxin [4]
1 | COc1cc([C@@H]2c3cc4c(cc3[C@@H](O[C@@H]3O[C@@H]5CO[C@@H](C)O[C@H]5[C@H](O)[C@H]3O)[C@H]3COC(=O)[C@H]23)OCO4)cc(OC)c1O [Etoposide, etoposide, reference compound] | 0.21 (≈ 0.357 µM) | 250 |  |  | 
2 | disodium etoposide 2˝ -phosphate [Compound XII] |  | 120 | 20 |  | 
3 | disodium etoposide 3˝-phosphate [Compound XI] |  | 185 | 2.2 |  | 
4 | etoposide 2˝,3˝-ditosylate [Compound XIX] |  | 100 | 30 |  | 
5 | etoposide 2˝-mesylate [Compound XXIV] |  | 130 | 29 |  | 
6 | etoposide 2˝-tosylate [Compound XVIII] |  | 115 | 5.4 |  | 
7 | etoposide 3˝-diphenyl phosphate [XXVI] |  | 130 | 8.0 |  | 
8 | etoposide 3˝-mesylate [Compound XXIII] |  | 175 | 0.32 |  | 
9 | etoposide 3˝-tosylate [Compound XVII] |  | 195 | 0.07 |  | 
10 | podophyllotoxin phosphate disodium salt |  |  |  | not hydrolyzed | did not show reduced toxicity
11 | sodium bis(etoposide-3˝-)phosphate [Compound XIII] |  | 125 | 37 |  | 
